Data reported in patent US7081447B2, “Organic compounds with biological activity as thrombin inhibitors and use thereof” (Novel Science International GmbH, priority 2001, dated 2006).
Non-standard residues stand in square brackets, D forms with d. Residues, ends and D or L forms follow the SMILES beside them. Cha = N[CH](CC1CCCCC1)C(=O)O; Nle = CCCC[CH](N)C(=O)O; Orn = NCCC[CH](N)C(=O)O

target: thrombin (Homo sapiens, UniProt P00734); experiment: in vitro inhibition of thrombin amidase activity (fluorogenic substrate Tos-Gly-Pro-Arg-(7-amino-4-methylcoumarin)); assay type: biochemical; design: with 10 μL of human thrombin solution; details: peptide concentration of 250 nM
Method: (§1) The values of the inhibition constant Ki were obtained from assays, in which thrombin hydrolyzes the fluorogenic substrate Tos-Gly-Pro-Arg-(7-amino-4-methylcoumarin). The assays were performed in 30 μL of assay buffer (0.05 M Tris, 0.1 M NaCl, 0.1% PEG 8000, pH 7.6) with 10 μL of human thrombin solution (10^−5 U/μL in assay buffer) and 140 μL of a solution of the fluorogenic substrate in assay buffer at a concentration v of 30 μM. Solutions of the test compound (10 μL) were added at various concentrations. The rates of substrate hydrolysis were measured by monitoring the reactions of 7-amino-4-methylcoumarin release at 460 nm with use of AMC. The reaction reached a steady state within 3 minutes after thrombin was combined with the substrate and an inhibitor. The kinetic data of the competitive inhibition (Km, Vmax, and Ki) were analyzed with the aid of the Hanes plot (A/V vs. A at various i values).
as §1, with “concentration” for “concentration v”, “using” for “with the aid of”, “values for A; here, A is the substrate concentration and V the reaction rate).” for “i values).”
as §1, with “conducted” for “performed”, “concentration” for “concentration v”, “using” for “with the aid of”, “values for A; here, A is the substrate concentration and V the reaction rate).” for “i values).”

Compound | Thrombin inhibition (thrombin amidase activity)
N-Acetyl-D-Phe-D-Cha-L-Aze-D-Tyr-L-Har amide [Example 77] | 77%
N-Acetyl-L-Ala-D-Cha-L-Aze-D-Tyr-L-Har amide [Example 76] | 77%
N-Acetyl-L-Cha-D-Cha-L-Aze-D-Tyr-L-Har amide [Example 85] | 90%
N-Acetyl-L-Dcp-D-Cha-L-Aze-D-Tyr-L-Har amide [Example 78] | 75%
N-Acetyl-L-Iq3-D-Cha-L-Aze-D-Tyr-L-Har amide [Example 80] | 72%
N-Acetyl-L-Nhm-D-Cha-L-Aze-D-Tyr-L-Har amide [Example 79] | 80%
N-Acetyl-L-Nle-D-Cha-L-Aze-D-Tyr-L-Har amide [Example 84] | 89%
N-Acetyl-L-Phg-D-Cha-L-Aze-D-Tyr-L-Har amide [Example 83] | 95%
N-Acetyl-L-Pnp-D-Cha-L-Aze-D-Tyr-L-Har amide [Example 86] | 72%
N-Acetyl-L-Ppd-D-Cha-L-Aze-D-Tyr-L-Har amide [Example 81] | 76%

same assay, conditions: peptide concentration of 1 μM

Compound | inhibition at 1 µM | Thrombin inhibition (thrombin amidase activity)
CCCCC(NC(=O)C(CC1CCCCC1)NC(=O)C(CCCNC(=N)N)NC(C)=O)C(=O)NC(CC1CCCCC1)C(=O)NC(CCC(=O)O)C(N)=O [Example 8, N-Acetyl-L-Arg-L-Cha-L-Nle-L-Cha-D-Glu amide] (Ac-R[Cha][Nle][Cha]E-NH2; configuration not given here) | 35% | 
N-Acetyl-D-Gln-D-His-L-Cha-D-Pro-D-Tyr-L-Arg amide [Example 25] |  | 59%
N-Acetyl-D-Glu-L-Cha-D-Pro-D-Tyr-L-Arg amide [Example 26] |  | 58%
N-Acetyl-D-Lys-D-Pro-L-Cha-D-Pro-D-Tyr-L-Arg amide [Example 14] |  | 53%
N-Acetyl-D-Val-D-His-L-Cha-D-Pro-D-Tyr-L-Arg amide [Example 27] |  | 51%
N-Acetyl-D-Val-L-Ala-L-Cha-D-Pro-D-Tyr-L-Arg amide [Example 9] |  | 53%
N-Acetyl-L-Ala-L-Cha-D-Pro-D-Tyr-L-Arg amide [Example 28] |  | 44%
N-Acetyl-L-Asp-L-Ser-L-Cha-D-Pro-D-Tyr-L-Arg amide [Example 10] |  | 51%
N-Acetyl-L-Ile-L-Arg-L-Cha-D-Pro-D-Tyr-L-Arg amide [Example 29] |  | 61%
N-Acetyl-L-Ile-L-Cha-D-Pro-D-Tyr-L-Arg amide [Example 11] |  | 48%
N-Acetyl-L-Ser-D-Glu-L-Cha-D-Pro-D-Tyr-L-Arg amide [Example 23] |  | 21%
N-Acetyl-L-Ser-D-Val-L-Cha-D-Pro-D-Tyr-L-Arg amide [Example 16] |  | 48%

Other lines, results leading:

inhibition at 1 µM | Thrombin inhibition (thrombin amidase activity) | Compound
 | 63% | N-Acetyl-L-Ala-D-Cha-L-Aze-D-Tyr-L-Arg amide [Example 55]
 | 83% | N-Acetyl-L-Ala-D-Cha-L-Aze-D-Tyr-L-Har amide [Example 57]
 | 56% | N-Acetyl-L-Ala-D-Cha-L-Pro-D-Tyr-L-Har amide [Example 56]

same assay, conditions: peptide concentration of 1 μM; 1 µM

Compound | Thrombin inhibition (thrombin amidase activity)
N-Acetyl-D-Lys-L-Nle-L-Cha-D-Pro-D-Tyr-L-Arg amide [Example 20] | 44%
N-Acetyl-D-Tyr-L-Cha-D-Pro-D-Tyr-L-Arg amide [Example 24] | 27%
N-Acetyl-D-Val-L-Cha-D-Pro-D-Tyr-L-Arg amide [Example 12] | 46%
N-Acetyl-D-Val-L-Cha-D-Pro-D-Tyr-L-Arg amide [Example 32] | 45%
N-Acetyl-L-Arg-L-Cha-D-Pro-D-Tyr-L-Arg amide [Example 21] | 38%
N-Acetyl-L-Ser-L-Ala-L-Cha-D-Pro-D-Tyr-L-Arg amide [Example 17] | 48%

Results, then the compound that gave them:

Thrombin inhibition (thrombin amidase activity) | Compound
48% | N-Acetyl-D-Lys-L-Nle-L-Cha-D-Pro-D-Tyr-L-Arg amide [Example 36]
48% | N-Acetyl-D-Lys-L-Nle-L-Cha-D-Pro-D-Tyr-L-Arg amide [Example 51]
48% | N-Acetyl-D-Lys-L-Nle-L-Cha-D-Pro-D-Tyr-L-Arg amide [Example 69]
47% | N-Acetyl-D-Tyr-L-Cha-D-Pro-D-Tyr-L-Arg amide [Example 37]
47% | N-Acetyl-D-Tyr-L-Cha-D-Pro-D-Tyr-L-Arg amide [Example 52]
47% | N-Acetyl-D-Tyr-L-Cha-D-Pro-D-Tyr-L-Arg amide [Example 70]
45% | N-Acetyl-D-Val-L-Cha-D-Pro-D-Tyr-L-Arg amide [Example 47]
45% | N-Acetyl-D-Val-L-Cha-D-Pro-D-Tyr-L-Arg amide [Example 65]
47% | N-Acetyl-L-Arg-L-Cha-D-Pro-D-Tyr-L-Arg amide [Example 38]
47% | N-Acetyl-L-Arg-L-Cha-D-Pro-D-Tyr-L-Arg amide [Example 53]
47% | N-Acetyl-L-Arg-L-Cha-D-Pro-D-Tyr-L-Arg amide [Example 71]
47% | N-Acetyl-L-Ser-L-Ala-L-Cha-D-Pro-D-Tyr-L-Arg amide [Example 34]
47% | N-Acetyl-L-Ser-L-Ala-L-Cha-D-Pro-D-Tyr-L-Arg amide [Example 49]

same assay, conditions: peptide concentration of 10 μM

Compound | inhibition at 10 µM
CCCCC(NC(=O)C(CC1CCCCC1)NC(=O)C(CCCNC(=N)N)NC(C)=O)C(=O)NC(CC1CCCCC1)C(=O)NC(CCCN)C(N)=O [Example 3, N-Acetyl-L-Arg-L-Cha-L-Nle-L-Cha-L-Orn amide] (Ac-R[Cha][Nle][Cha][Orn]-NH2; configuration not given here) | 63%
CC(=O)NC(CCCNC(=N)N)C(=O)NC(CC1CCCCC1)C(=O)NC(CC1CCCCC1)C(=O)NC(CC1CCCCC1)C(=O)NC(CCC(=O)O)C(N)=O [Example 4, N-Acetyl-L-Arg-L-Cha-L-Cha-L-Cha-D-Glu amide] (Ac-R[Cha][Cha][Cha]E-NH2; configuration not given here) | 78%
[H]/N=C(\N)NCCCC(NC(=O)C(Cc1ccc(O)cc1)NC(=O)C1CCCN1C(=O)C(CC1CCCCC1)NC(=O)C(CCCN/C(N)=N/[H])NC(C)=O)C(N)=O [Example 5, N-Acetyl-L-Arg-L-Cha-D-Pro-D-Tyr-L-Arg amide] | 98%
[H]/N=C(\N)NCCCC(NC(C)=O)C(=O)NC(CC1CCCCC1)C(=O)NC(CC1CCCCC1)C(=O)NC(CC1CCCCC1)C(=O)NC(CCCN)C(N)=O [Example 6, N-Acetyl-L-Arg-L-Cha-L-Cha-L-Cha-L-Orn amide] | 71%
CCCCC(NC(=O)C(CC1CCCCC1)NC(=O)C(CCCNC(=N)N)NC(C)=O)C(=O)NC(CC1CCCCC1)C(N)=O [Example 7, N-Acetyl-L-Arg-L-Cha-L-Nle-L-Cha amide] (Ac-R[Cha][Nle][Cha]-NH2; configuration not given here) | 60%

same assay, conditions: peptide concentration of 25 μM

Compound | inhibition at 25 µM
[H]/N=C(\N)NCCCC(NC(C)=O)C(=O)NC(CC1CCCCC1)C(=O)NC(CCCC)C(=O)NC(CC1CCCCC1)C(=O)NC(CCC(N)=O)C(N)=O [Example 1, N-Acetyl-L-Arg-L-Cha-L-Nle-L-Cha-D-Gln amide] | 66%
[H]/N=C(\N)NCCCC(NC(C)=O)C(=O)NC(CC1CCCCC1)C(=O)NC(CC(=O)O)C(=O)NC(CC1CCCCC1)C(N)=O [Example 2, N-Acetyl-L-Arg-L-Cha-L-Asp-L-Cha amide] | 68%
